Results taken from article doi:10.1101/2023.03.24.534094v2 (biorxiv, 2023).
Read-outs that look alike come from different tables or passages of the source. Blank lines part the entries; values can stand above or below the compound they belong to.

Assays:
Test in all cases: biochemical
MARK4 = molecular target: T1, MARK4 (Homo sapiens, UniProt Q96L34)
T1 sequence (Q96L34 1-752): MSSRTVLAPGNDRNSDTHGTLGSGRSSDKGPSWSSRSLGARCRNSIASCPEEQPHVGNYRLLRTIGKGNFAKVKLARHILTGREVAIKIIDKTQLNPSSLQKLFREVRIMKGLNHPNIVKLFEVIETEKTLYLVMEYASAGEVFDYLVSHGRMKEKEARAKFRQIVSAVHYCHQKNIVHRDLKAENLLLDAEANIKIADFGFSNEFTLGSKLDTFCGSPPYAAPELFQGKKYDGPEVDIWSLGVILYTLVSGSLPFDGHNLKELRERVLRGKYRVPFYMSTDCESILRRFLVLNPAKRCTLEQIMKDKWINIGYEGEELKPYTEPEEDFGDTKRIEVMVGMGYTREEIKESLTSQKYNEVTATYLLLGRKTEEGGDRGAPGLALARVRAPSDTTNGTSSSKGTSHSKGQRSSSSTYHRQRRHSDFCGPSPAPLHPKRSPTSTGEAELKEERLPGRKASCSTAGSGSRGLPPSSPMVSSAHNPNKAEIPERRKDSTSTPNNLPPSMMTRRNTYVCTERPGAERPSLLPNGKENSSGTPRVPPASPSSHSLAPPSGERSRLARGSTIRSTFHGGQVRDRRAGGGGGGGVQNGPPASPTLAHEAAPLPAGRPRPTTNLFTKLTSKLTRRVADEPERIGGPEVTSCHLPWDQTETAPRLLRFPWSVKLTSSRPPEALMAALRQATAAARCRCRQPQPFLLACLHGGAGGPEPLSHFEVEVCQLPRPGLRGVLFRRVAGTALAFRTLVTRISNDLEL

NDR2 = NDR2 (Homo sapiens, UniProt Q9Y2H1)
Chain of NDR2 (Q9Y2H1 whole entry): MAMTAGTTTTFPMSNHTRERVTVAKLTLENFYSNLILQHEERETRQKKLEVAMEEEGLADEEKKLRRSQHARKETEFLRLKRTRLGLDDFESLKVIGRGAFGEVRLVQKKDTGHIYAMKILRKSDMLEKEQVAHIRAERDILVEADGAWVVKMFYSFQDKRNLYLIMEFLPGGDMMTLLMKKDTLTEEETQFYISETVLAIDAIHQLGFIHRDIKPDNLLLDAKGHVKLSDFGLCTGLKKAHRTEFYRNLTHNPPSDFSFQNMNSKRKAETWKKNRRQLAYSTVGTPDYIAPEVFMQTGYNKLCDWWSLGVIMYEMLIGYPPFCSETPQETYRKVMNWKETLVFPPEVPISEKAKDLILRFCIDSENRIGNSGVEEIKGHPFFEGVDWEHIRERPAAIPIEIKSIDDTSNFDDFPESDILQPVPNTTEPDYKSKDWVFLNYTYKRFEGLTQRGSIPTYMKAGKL

EphB1 = molecular target: T2, EphB1 (Homo sapiens, UniProt P54762)
T2 sequence (P54762 1-984): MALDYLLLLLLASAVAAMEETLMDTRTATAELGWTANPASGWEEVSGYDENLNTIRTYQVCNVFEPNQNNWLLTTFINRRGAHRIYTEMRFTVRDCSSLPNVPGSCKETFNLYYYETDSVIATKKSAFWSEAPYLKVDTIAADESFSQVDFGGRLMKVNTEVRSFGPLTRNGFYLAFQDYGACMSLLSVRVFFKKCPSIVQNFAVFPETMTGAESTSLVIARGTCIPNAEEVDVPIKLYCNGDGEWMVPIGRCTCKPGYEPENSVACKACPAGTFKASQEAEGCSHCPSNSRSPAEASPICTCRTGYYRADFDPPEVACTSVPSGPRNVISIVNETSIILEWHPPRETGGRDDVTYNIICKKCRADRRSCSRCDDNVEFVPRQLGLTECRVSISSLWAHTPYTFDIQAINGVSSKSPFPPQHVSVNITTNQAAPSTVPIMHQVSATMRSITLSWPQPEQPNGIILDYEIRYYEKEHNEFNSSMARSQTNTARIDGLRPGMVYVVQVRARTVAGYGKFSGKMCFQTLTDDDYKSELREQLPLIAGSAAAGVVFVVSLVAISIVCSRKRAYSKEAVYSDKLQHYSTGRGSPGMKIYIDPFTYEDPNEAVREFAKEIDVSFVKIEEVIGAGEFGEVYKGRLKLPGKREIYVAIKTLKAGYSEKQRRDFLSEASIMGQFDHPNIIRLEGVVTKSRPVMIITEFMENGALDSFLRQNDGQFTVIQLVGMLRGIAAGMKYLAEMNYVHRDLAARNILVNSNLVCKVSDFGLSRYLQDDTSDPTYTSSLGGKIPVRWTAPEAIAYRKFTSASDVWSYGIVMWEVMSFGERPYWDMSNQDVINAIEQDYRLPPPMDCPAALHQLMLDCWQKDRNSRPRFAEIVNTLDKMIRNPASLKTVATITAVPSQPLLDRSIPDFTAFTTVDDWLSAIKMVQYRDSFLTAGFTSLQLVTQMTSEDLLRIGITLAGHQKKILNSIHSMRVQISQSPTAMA

p38a = p38a (Homo sapiens, UniProt Q16539)
Chain of p38a (Q16539 whole entry): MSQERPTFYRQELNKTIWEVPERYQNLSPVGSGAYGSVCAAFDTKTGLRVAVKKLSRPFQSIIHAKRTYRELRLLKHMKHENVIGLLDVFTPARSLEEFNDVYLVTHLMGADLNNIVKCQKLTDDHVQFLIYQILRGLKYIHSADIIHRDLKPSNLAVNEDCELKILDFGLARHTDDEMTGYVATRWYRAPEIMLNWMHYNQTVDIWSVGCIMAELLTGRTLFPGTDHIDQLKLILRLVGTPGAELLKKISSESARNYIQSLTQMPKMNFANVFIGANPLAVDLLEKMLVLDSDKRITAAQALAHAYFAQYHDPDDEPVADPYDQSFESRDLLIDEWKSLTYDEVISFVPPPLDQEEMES

Haspin = molecular target: T3, Haspin (Homo sapiens, UniProt Q8TF76)
T3 sequence (Q8TF76 1-798): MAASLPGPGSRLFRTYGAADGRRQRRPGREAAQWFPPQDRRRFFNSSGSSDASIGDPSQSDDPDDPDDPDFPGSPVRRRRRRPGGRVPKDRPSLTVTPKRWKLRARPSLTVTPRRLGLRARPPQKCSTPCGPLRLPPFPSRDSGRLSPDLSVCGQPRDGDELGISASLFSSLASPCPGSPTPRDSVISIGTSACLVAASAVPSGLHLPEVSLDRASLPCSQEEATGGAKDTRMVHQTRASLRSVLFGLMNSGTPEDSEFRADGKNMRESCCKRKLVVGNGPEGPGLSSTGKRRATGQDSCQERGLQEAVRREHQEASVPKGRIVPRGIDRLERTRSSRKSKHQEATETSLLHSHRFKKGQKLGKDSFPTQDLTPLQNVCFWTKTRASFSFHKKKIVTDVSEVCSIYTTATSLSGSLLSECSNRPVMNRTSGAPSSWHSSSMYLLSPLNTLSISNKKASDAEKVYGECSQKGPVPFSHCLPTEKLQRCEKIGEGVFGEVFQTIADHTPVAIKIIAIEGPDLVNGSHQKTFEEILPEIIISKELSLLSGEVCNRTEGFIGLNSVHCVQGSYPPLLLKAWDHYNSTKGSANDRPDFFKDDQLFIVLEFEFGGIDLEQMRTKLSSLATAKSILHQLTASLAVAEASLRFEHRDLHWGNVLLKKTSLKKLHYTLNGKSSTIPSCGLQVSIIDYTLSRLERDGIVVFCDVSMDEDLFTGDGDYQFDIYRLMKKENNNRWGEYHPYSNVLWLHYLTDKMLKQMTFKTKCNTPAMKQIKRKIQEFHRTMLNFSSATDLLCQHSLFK

ΔTm at 10 µM (MARK4; read-out: dTm MR21 (4)): 3 °C
ΔTm at 10 µM (NDR2; read-out: dTm MR21 (4)): 0.5 °C
ΔTm at 10 µM (EphB1; read-out: dTm MR21 (4)): 3.6 °C
ΔTm at 10 µM (p38a; read-out: dTm MR21 (4)): 8.8 °C
ΔTm at 10 µM (Haspin; read-out: dTm MR21 (4)): 0.7 °C
Structure (SMILES): CNc1ncc2cc(-c3ccccc3Cl)c(=O)n(CCCCN)c2n1 [compound 4, 8-(4-Aminobutyl)-6-(2-chlorophenyl)-2-(methylamino)pyrido[2,3-d]pyrimidin-7(8H)-one]

ΔTm at 10 µM (MARK4; read-out: dTm 6): 1.7 °C
ΔTm at 10 µM (NDR2; read-out: dTm 6): 0.7 °C
ΔTm at 10 µM (EphB1; read-out: dTm 6): 4.7 °C
ΔTm at 10 µM (p38a; read-out: dTm 6): 5.6 °C
ΔTm at 10 µM (Haspin; read-out: dTm 6): 0.7 °C
Structure (SMILES): CNc1ncc2cc(-c3cc(Br)ccc3Cl)c(=O)n(CCCCN)c2n1 [compound 6, 8-(4-Aminobutyl)-6-(5-bromo-2-chlorophenyl)-2-(methylamino)pyrido[2,3-d]pyrimidin-7(8H)-one]

The remaining lines, values behind:

Structure (SMILES): CNc1ncc2cc(-c3cc(F)ccc3F)c(=O)n(CCCCN)c2n1 [compound 5, 8-(4-Aminobutyl)-6-(2,5-difluorophenyl)-2-(methylamino)pyrido[2,3-d]pyrimidin-7(8H)-one]
ΔTm at 10 µM (MARK4; read-out: dTm MR22 (5)): 0 °C
ΔTm at 10 µM (NDR2; read-out: dTm MR22 (5)): 1.6 °C
ΔTm at 10 µM (EphB1; read-out: dTm MR22 (5)): 4.5 °C
ΔTm at 10 µM (p38a; read-out: dTm MR22 (5)): -0.6 °C
ΔTm at 10 µM (Haspin; read-out: dTm MR22 (5)): -0.3 °C

Structure (SMILES): CNc1ncc2cc(-c3cc(Br)ccc3Cl)c(=O)n(C[C@H]3OC[C@H](N)CO3)c2n1 [compound 7, 8-(((2r,5r)-5-Amino-1,3-dioxan-2-yl)methyl)-6-(5-bromo-2-chlorophenyl)-2-(methylamino)pyrido[2,3-d]pyrimidin-7(8H)-one]
ΔTm at 10 µM (MARK4; read-out: dTm 7): 0.8 °C
ΔTm at 10 µM (NDR2; read-out: dTm 7): -0.1 °C
ΔTm at 10 µM (EphB1; read-out: dTm 7): 3.1 °C
ΔTm at 10 µM (p38a; read-out: dTm 7): 5.3 °C
ΔTm at 10 µM (Haspin; read-out: dTm 7): 0.7 °C

Structure (SMILES): CNc1ncc2cc(-c3ccc(-c4cccc(C)n4)cc3Cl)c(=O)n(CC3OCC(N)CO3)c2n1 (stereo not drawn) [compound 2, G-5555]
dTm G-5555 (2) (MARK4; 10 µM, binder): 7.7 °C
dTm G-5555 (2) (NDR2; 10 µM, binder): 3.5 °C
dTm G-5555 (2) (p38a; 10 µM, binder): 1.4 °C
dTm G-5555 (2) (Haspin; 10 µM, binder): 0.2 °C
